According to PMC6460286 (Biochimie, 2017):
Read-outs that look alike come from different tables or passages of the source.

What was measured:
[1] = test system: HIF PHD (HIF1 ODD-luc reporter); experiment: HIF1 ODD-luc reporter assay in SH-SY5Y cells; format: cell-based; conditions: for effect on HIF1 ODD-luc reporter activation induced by Compound 8a: agents applied in equal concentration; for effect on reporter activation by HIF PHD inhibitors of various nature: NAC up to millimolar concentrations
[2] = test system: HIF-1 target genes (VEGF, HO-1), HIF1α, NQO-1; experiment: RT-PCR of HIF1 target genes in N2a cells; format: cell-based, mouse; conditions: 4 h
[3] = Potassium ferricyanide reduction; format: physicochemical; conditions: 1 mM agent, 1 mM potassium ferricyanide, 50 mM Tris-HCl buffer, pH 7.4
[4] = test system: HIF PHD; conditions: cited from earlier work
[5] = test system: HIF1 and HIF2; conditions: cited from earlier work
[6] = test system: HIF; conditions: cited from earlier work
[7] = target: PHD2; conditions: ref 36 (FG-4592), ref 37 (IOX2); cited from earlier work
[8] = test system: HIF PHD (HIF1 ODD-luc reporter); conditions: specific for HIF PHD; cited from earlier work
[9] = 3 h incubation, physiological L-Asc (0.04–0.1 mM)
[10] = reporter activation by Compound 8a

For Cc1nc(C(=O)NCC(=O)O)c(O)c2ccc(Oc3ccccc3)cc12 [FG-4592], the “suppressing effect of L-Asc on reporter activation induced by the inhibitor” value (“suppressing effect of L-Asc … by the inhibitor” below) [1, 9] was “minimal” and the “concentration above which toxicity is seen” value ([1]; titration up to 0.6 mM, Supplementary Fig. S2) was “above 100 μM”.
With O=C1O[C@H]([C@H](O)CO)C(O)=C1O [D-Asc, D-isoascorbic acid] the “effect on HIF1 ODD-luc reporter activation induced by Compound 8a” value (“effect … by Compound 8a” below) ([1]; 3 h incubation) was “neither D-Asc nor NAC applied in the equal concentration cause any change”, the “effect on reporter activation by HIF PHD inhibitors of various nature” value [1] was “minor effect, if any” and the “inhibition of HIF1 target gene activation” value ([2]; 100 μM co-treatment with 5 μM Compound 8a) was “under 10%”. For the same compound, the “reducing power (ferricyanide reduction kinetics), L-Asc vs D-Asc” value [3] was “no difference in reduction kinetics”.
With O=C1O[C@H]([C@@H](O)CO)C(O)=C1O [L-Asc, L-ascorbic acid] the “effect … by Compound 8a” value ([1]; 3 h incubation) was “potently suppresses”, the “L-Asc concentration at which suppression is already observed” value [1, 10] was 10 µM and the “concentration above which L-Asc effect shows saturation” value [1, 10] was “above 40 μM”. For the same compound, the “drop in magnitude of reporter activation with increase in L-Asc concentration” value [1, 10] was 2.5 fold, the “increase in EC50 of Compound 8a with increase in L-Asc concentration” value [1, 10] was “ca. 1.5 fold” and the “effect of L-Asc alone on expression of HIF1 target genes” value ([2]; 100 μM) was “no changes”. For the same compound, the “reducing power (ferricyanide reduction kinetics), L-Asc vs D-Asc” value [3] was “no difference in reduction kinetics”, the Km [4] was ~50 µM and the “L-Asc effect on HIF stabilization induced by 1 mM monomethyloxalylglycine” value ([5]; immunoblotting) was “absence of L-Asc effect”. The “concentration giving the comparable suppressive effect on HIF stability” value [6] was 50 µM.
In the case of CC(=O)N[C@@H](CS)C(=O)O [NAC, N-acetylcysteine], the “effect … by Compound 8a” value ([1]; 3 h incubation) is reported as “neither D-Asc nor NAC applied in the equal concentration cause any change”, the “suppressing effect on reporter activation” value ([1]; NAC up to 1 mM, either drug, not shown) is reported as “no suppressing effect” and the “effect on reporter activation by HIF PHD inhibitors of various nature” value [1] is reported as “no effect”.
For CCOC(=O)c1ccc(O)c(O)c1 [DHB, Ethyl 3,4-dihydroxybenzoate], the “suppressing effect of L-Asc … by the inhibitor” value [1, 9] was “very sensitive to L-Asc” and the EC50 ([1]; read-out: EC50 of reporter activation) was 250 µM.
In the case of O=C(O)CNC(=O)c1c(O)c2ccccc2n(Cc2ccccc2)c1=O [IOX2], the “suppressing effect of L-Asc … by the inhibitor” value [1, 9] is given as “minimal” and the “inhibition constant, homogeneous enzyme assay with PHD2” value [7] is given as “nanomolar range”.
For COC(=O)CNC(=O)C(=O)OC [DMOG, dimethyloxalyl glycine], the “suppressing effect of L-Asc … by the inhibitor” value [1, 9] is given as “pronounced for DMOG up to 250 μM”, the “suppressing effect of L-Asc … by the inhibitor” value ([1]; higher DMOG concentrations (mM range), not shown) is given as “negligible” and the “working concentration resulting in HIF1 and HIF2 stabilization” value ([5]; after 2 h incubation) is given as “ca. 1 mM”.
For Oc1cccnc1NC(c1ccc(Cl)cc1)c1ccc2cccnc2c1O (stereo not drawn) [Compound 8, adaptaquin], the EC50 [8] is given as ~2 µM.
